Assay results taken from US12077503B2, “Substituted cyclic amides and their use as herbicides” (FMC CORPORATION, priority 2015, dated 2024).

How the values were obtained:
Experiment in all cases: Test C preemergence
Format in all cases: in vivo
Details in all cases: scale 0 to 100, 0 no effect, 100 complete control
[1] = system: johnsongrass (Sorghum halepense)
Procedure, shortened: (§1)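 Preemergence application to seeds in loam/sand soil, or foliar (postemergence) application to plants 2–18 cm tall in peat moss/vermiculite medium; surfactant-containing non-phytotoxic solvent vehicle; greenhouse. Visual injury vs controls at 13–15 d; 0 = no effect, 100 = complete control.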

[2] = system: nutsedge, yellow (yellow nutsedge, Cyperus esculentus)
Procedure, shortened: as §1

[3] = system: velvetleaf (Abutilon theophrasti)
Procedure, shortened: as §1

[4] = system: blackgrass (Alopecurus myosuroides)
Procedure, shortened: as §1

[5] = system: pigweed (Amaranthus retroflexus)
Procedure, shortened: as §1

[6] = system: ryegrass, Italian (Italian ryegrass, Lolium multiflorum)
Procedure, shortened: as §1

[7] = system: ragweed (common ragweed, Ambrosia elatior)
Procedure, shortened: as §1

[8] = system: waterhemp (common waterhemp, Amaranthus rudis)
Procedure, shortened: as §1

[9] = system: lambsquarters (Chenopodium album)
Procedure, shortened: as §1

[10] = system: morningglory (Ipomoea coccinea)
Procedure, shortened: as §1

[11] = system: barnyardgrass (Echinochloa crus-galli)
Procedure, shortened: as §1

[12] = system: foxtail, giant (giant foxtail, Setaria faberii)
Procedure, shortened: as §1

corn (Zea mays) = system: corn (Zea mays)
Procedure, shortened: as §1

[13] = system: wheat (winter wheat, Triticum aestivum)
Procedure, shortened: as §1

[14] = system: crabgrass, large (large crabgrass, Digitaria sanguinalis)
Procedure, shortened: as §1

[15] = system: oilseed rape (Brassica napus)
Procedure, shortened: as §1

[16] = system: Galium (catchweed bedstraw, Galium aparine)
Procedure, shortened: as §1

## CN1CC(c2cccc(C(F)(F)F)c2)C(C)(C(=O)Nc2ccccc2F)C1=O (stereo not drawn) [Compound 428]
[1]; 31 g ai/ha
  Plant response rating, Johnsongrass: 5
[1]; 62 g ai/ha
  Plant response rating, Johnsongrass: 50
[1]; 125 g ai/ha
  Plant response rating, Johnsongrass: 65
[1]; 250 g ai/ha
  Plant response rating, Johnsongrass: 75
[2]; 31 g ai/ha
  Plant response rating, Nutsedge, Yellow: 0
[2]; 62 g ai/ha
  Plant response rating, Nutsedge, Yellow: 0
[2]; 125 g ai/ha
  Plant response rating, Nutsedge, Yellow: 0
[2]; 250 g ai/ha
  Plant response rating, Nutsedge, Yellow: 30
[3]; 62 g ai/ha
  Plant response rating, Velvetleaf: 0
[3]; 125 g ai/ha
  Plant response rating, Velvetleaf: 0
[3]; 250 g ai/ha
  Plant response rating, Velvetleaf: 10
[4]; 31 g ai/ha
  Plant response rating, Blackgrass: 0
[4]; 62 g ai/ha
  Plant response rating, Blackgrass: 0
[4]; 125 g ai/ha
  Plant response rating, Blackgrass: 30
[4]; 250 g ai/ha
  Plant response rating, Blackgrass: 30
[5]; 31 g ai/ha
  Plant response rating, Pigweed: 10
[5]; 62 g ai/ha
  Plant response rating, Pigweed: 0
[5]; 125 g ai/ha
  Plant response rating, Pigweed: 0
[5]; 250 g ai/ha
  Plant response rating, Pigweed: 40
[6]; 62 g ai/ha
  Plant response rating, Ryegrass, Italian: 40
[6]; 125 g ai/ha
  Plant response rating, Ryegrass, Italian: 40
[6]; 250 g ai/ha
  Plant response rating, Ryegrass, Italian: 45
[7]; 31 g ai/ha
  Plant response rating, Ragweed: 0
[7]; 62 g ai/ha
  Plant response rating, Ragweed: 0
[7]; 125 g ai/ha
  Plant response rating, Ragweed: 0
[7]; 250 g ai/ha
  Plant response rating, Ragweed: 0
[8]; 62 g ai/ha
  Plant response rating, Waterhemp: 0
[8]; 125 g ai/ha
  Plant response rating, Waterhemp: 10
[8]; 250 g ai/ha
  Plant response rating, Waterhemp: 35
[9]; 31 g ai/ha
  Plant response rating, Lambsquarters: 0
[9]; 62 g ai/ha
  Plant response rating, Lambsquarters: 10
[9]; 125 g ai/ha
  Plant response rating, Lambsquarters: 35
[9]; 250 g ai/ha
  Plant response rating, Lambsquarters: 65
[10]; 31 g ai/ha
  Plant response rating, Morningglory: 0
[10]; 62 g ai/ha
  Plant response rating, Morningglory: 0
[10]; 125 g ai/ha
  Plant response rating, Morningglory: 0
[10]; 250 g ai/ha
  Plant response rating, Morningglory: 0
[11]; 31 g ai/ha
  Plant response rating, Barnyardgrass: 90
[11]; 62 g ai/ha
  Plant response rating, Barnyardgrass: 95
[11]; 125 g ai/ha
  Plant response rating, Barnyardgrass: 95
[11]; 250 g ai/ha
  Plant response rating, Barnyardgrass: 98
[12]; 31 g ai/ha
  Plant response rating, Foxtail, Giant: 85
[12]; 62 g ai/ha
  Plant response rating, Foxtail, Giant: 90
[12]; 125 g ai/ha
  Plant response rating, Foxtail, Giant: 90
[12]; 250 g ai/ha
  Plant response rating, Foxtail, Giant: 95
Corn (Zea mays); 31 g ai/ha
  Plant response rating, Corn: 15
Corn (Zea mays); 62 g ai/ha
  Plant response rating, Corn: 25
Corn (Zea mays); 125 g ai/ha
  Plant response rating, Corn: 55
Corn (Zea mays); 250 g ai/ha
  Plant response rating, Corn: 70
[13]; 62 g ai/ha
  Plant response rating, Wheat: 15
[13]; 125 g ai/ha
  Plant response rating, Wheat: 50
[13]; 250 g ai/ha
  Plant response rating, Wheat: 80
[14]; 31 g ai/ha
  Plant response rating, Crabgrass, Large: 90
[14]; 62 g ai/ha
  Plant response rating, Crabgrass, Large: 95
[14]; 125 g ai/ha
  Plant response rating, Crabgrass, Large: 98
[14]; 250 g ai/ha
  Plant response rating, Crabgrass, Large: 98
[15]; 31 g ai/ha
  Plant response rating, Oilseed Rape: 0
[15]; 62 g ai/ha
  Plant response rating, Oilseed Rape: 0
[15]; 125 g ai/ha
  Plant response rating, Oilseed Rape: 0
[15]; 250 g ai/ha
  Plant response rating, Oilseed Rape: 15

## Cc1ccc(C2CN(C)C(=O)C2C(=O)Nc2cccc(F)c2F)cc1F (stereo not drawn) [Compound 464]
[1]; 31 g ai/ha
  Plant response rating, Johnsongrass: 35
[1]; 62 g ai/ha
  Plant response rating, Johnsongrass: 80
[1]; 125 g ai/ha
  Plant response rating, Johnsongrass: 85
[1]; 250 g ai/ha
  Plant response rating, Johnsongrass: 95
[2]; 31 g ai/ha
  Plant response rating, Nutsedge, Yellow: 0
[2]; 62 g ai/ha
  Plant response rating, Nutsedge, Yellow: 0
[2]; 125 g ai/ha
  Plant response rating, Nutsedge, Yellow: 0
[2]; 250 g ai/ha
  Plant response rating, Nutsedge, Yellow: 0
[3]; 62 g ai/ha
  Plant response rating, Velvetleaf: 30
[3]; 125 g ai/ha
  Plant response rating, Velvetleaf: 45
[3]; 250 g ai/ha
  Plant response rating, Velvetleaf: 60
[4]; 31 g ai/ha
  Plant response rating, Blackgrass: 80
[4]; 62 g ai/ha
  Plant response rating, Blackgrass: 85
[4]; 125 g ai/ha
  Plant response rating, Blackgrass: 85
[4]; 250 g ai/ha
  Plant response rating, Blackgrass: 85
[5]; 31 g ai/ha
  Plant response rating, Pigweed: 45
[5]; 62 g ai/ha
  Plant response rating, Pigweed: 45
[5]; 125 g ai/ha
  Plant response rating, Pigweed: 60
[5]; 250 g ai/ha
  Plant response rating, Pigweed: 70
[6]; 62 g ai/ha
  Plant response rating, Ryegrass, Italian: 55
[6]; 125 g ai/ha
  Plant response rating, Ryegrass, Italian: 70
[6]; 250 g ai/ha
  Plant response rating, Ryegrass, Italian: 85
[7]; 31 g ai/ha
  Plant response rating, Ragweed: 70
[7]; 62 g ai/ha
  Plant response rating, Ragweed: 70
[7]; 125 g ai/ha
  Plant response rating, Ragweed: 75
[7]; 250 g ai/ha
  Plant response rating, Ragweed: 90
[8]; 62 g ai/ha
  Plant response rating, Waterhemp: 75
[8]; 125 g ai/ha
  Plant response rating, Waterhemp: 80
[8]; 250 g ai/ha
  Plant response rating, Waterhemp: 95
[9]; 31 g ai/ha
  Plant response rating, Lambsquarters: 45
[9]; 62 g ai/ha
  Plant response rating, Lambsquarters: 80
[9]; 125 g ai/ha
  Plant response rating, Lambsquarters: 80
[9]; 250 g ai/ha
  Plant response rating, Lambsquarters: 90
[10]; 31 g ai/ha
  Plant response rating, Morningglory: 10
[10]; 62 g ai/ha
  Plant response rating, Morningglory: 20
[10]; 125 g ai/ha
  Plant response rating, Morningglory: 20
[10]; 250 g ai/ha
  Plant response rating, Morningglory: 40
[11]; 31 g ai/ha
  Plant response rating, Barnyardgrass: 90
[11]; 62 g ai/ha
  Plant response rating, Barnyardgrass: 95
[11]; 125 g ai/ha
  Plant response rating, Barnyardgrass: 95
[11]; 250 g ai/ha
  Plant response rating, Barnyardgrass: 98
Corn (Zea mays); 31 g ai/ha
  Plant response rating, Corn: 50
Corn (Zea mays); 62 g ai/ha
  Plant response rating, Corn: 70
Corn (Zea mays); 125 g ai/ha
  Plant response rating, Corn: 75
Corn (Zea mays); 250 g ai/ha
  Plant response rating, Corn: 90
[16]; 31 g ai/ha
  Plant response rating, Galium: 90
[16]; 62 g ai/ha
  Plant response rating, Galium: 95
[16]; 125 g ai/ha
  Plant response rating, Galium: 95
[16]; 250 g ai/ha
  Plant response rating, Galium: 95
[13]; 62 g ai/ha
  Plant response rating, Wheat: 50
[13]; 125 g ai/ha
  Plant response rating, Wheat: 70
[13]; 250 g ai/ha
  Plant response rating, Wheat: 90
[14]; 31 g ai/ha
  Plant response rating, Crabgrass, Large: 95
[14]; 62 g ai/ha
  Plant response rating, Crabgrass, Large: 100
[14]; 125 g ai/ha
  Plant response rating, Crabgrass, Large: 100
[14]; 250 g ai/ha
  Plant response rating, Crabgrass, Large: 100
[15]; 31 g ai/ha
  Plant response rating, Oilseed Rape: 80
[15]; 62 g ai/ha
  Plant response rating, Oilseed Rape: 85
[15]; 125 g ai/ha
  Plant response rating, Oilseed Rape: 80
[15]; 250 g ai/ha
  Plant response rating, Oilseed Rape: 90
